Measured values taken from patent US20240400555A1 (Initial Therapeutics, Inc., priority 2023, published 2024).
Read-outs that look alike come from different tables or passages of the source.

Test system: MV-4-11 cells
Experiment: Cell Viability Assay in MV-4-11 Cells
Assay type: cell-based
In short: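 Luminescent ATP read-out (CellTiter-Glo) after 72 h compound treatment of MV-4-11 leukaemia cells (7,000 per well, IMDM plus 10% FBS). Values expressed relative to DMSO control and derived by four-parameter non-linear regression.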

[1] = Homo sapiens, MV4-11, 72 h, MV-4-11 cells, 72 h, Cell-Titer Glo, read-out: IC50

SMILES | IC50 [1] [nM] | also measured
Cc1cccc2ccnc(N(C(=O)c3ccc(C#N)c(-c4cccc(-c5cccnc5)c4)c3)[C@@H]3CCCNC3)c12 [Example 336, 4-cyano-N-(8-methyl-1-isoquinolyl)-N-[(3R)-3-piperidyl]-3-[3-(3-pyridyl)phenyl]benzamide] | 270 | 
Cc1noc(-c2ccc(C(=O)N(c3nccc4cc(F)cc(C)c34)[C@@H]3CCCNC3)cc2)n1 [Example 775, (R)—N-(6-fluoro-8-methylisoquinolin-1-yl)-4-(3-methyl-1,2,4-oxadiazol-5-yl)-N-(piperidin-3-yl)benzamide] | 99 | 
COc1ccc(C)c2c(N(C(=O)c3ccc(-c4nnc(C)s4)cc3)[C@@H]3CCCNC3)nccc12 [Example 871, N-(5-methoxy-8-methyl-1-isoquinolyl)-4-(5-methyl-1,3,4-thiadiazol-2-yl)-N-[(3R)-3-piperidyl]benzamide] | 720 | 
Cc1cccc2ccnc(N(C(=O)c3ccc(C#N)cc3-c3ccn[nH]3)[C@@H]3CCCNC3)c12 [Example 333, 4-cyano-N-(8-methyl-1-isoquinolyl)-N-[(3R)-3-piperidyl]-2-(1H-pyrazol-5-yl)benzamide] | > 10000 | 
Cc1cccc2ccnc(N(C(=O)c3ccc(Nc4ncccn4)c(Cl)c3)[C@@H]3CCCNC3)c12 [Example 847, (R)-3-chloro-N-(8-methylisoquinolin-1-yl)-N-(piperidin-3-yl)-4-(pyrimidin-2-ylamino)benzamide] | 2000 | 
Cc1cc(Cl)cc2ccnc(N(C(=O)c3ccc(-c4cnn(C)c4C)cc3F)[C@@H]3CCCNC3)c12 [Example 814, (R)—N-(6-chloro-8-methylisoquinolin-1-yl)-4-(1,5-dimethyl-1H-pyrazol-4-yl)-2-fluoro-N-(piperidin-3-yl)benzamide] | 430 | 
Cn1cc(-c2ccc(C(=O)N(c3nccc4cccc(Cl)c34)[C@@H]3CCCNC3)cc2)nn1 [Example 800, (R)—N-(8-chloroisoquinolin-1-yl)-4-(1-methyl-1H-1,2,3-triazol-4-yl)-N-(piperidin-3-yl)benzamide] | 170 | 
Cc1cc(-c2ccc(C(=O)N(c3nccc4scc(C)c34)[C@@H]3CCCNC3)nc2)on1 [Example 797, (R)-5-(3-methylisoxazol-5-yl)-N-(3-methylthieno[3,2-c]pyridin-4-yl)-N-(piperidin-3-yl)picolinamide] | 170 | 
Cn1cc(-c2ccc(C(=O)N(c3nccc4cc(-c5ccccc5)ccc34)[C@@H]3CCCNC3)c(F)c2)nn1 [Example 577, (R)-2-fluoro-4-(1-methyl-1H-1,2,3-triazol-4-yl)-N-(6-phenylisoquinolin-1-yl)-N-(piperidin-3-yl)benzamide] |  | IC50 (MV-4-11 cells, 72 h, Cell-Titer Glo, read-out: IC50): 76 nM
Cc1cc(C)c2c(N(C(=O)c3ccc(-c4nc(C)no4)cc3)[C@@H]3CCCNC3)nccc2c1 [Example 915, N-(6,8-dimethyl-1-isoquinolyl)-4-(3-methyl-1,2,4-oxadiazol-5-yl)-N-[(3R)-3-piperidyl] benzamide] | 86 | 
Cc1csc2ccnc(N(C(=O)c3ccc(-c4nnn5c4COCC5)cc3F)[C@@H]3CCCNC3)c12 [Example 635, (R)-4-(6,7-dihydro-4H-[1,2,3]triazolo[5,1-c][1,4]oxazin-3-yl)-2-fluoro-N-(3-methylthieno[3,2-c]pyridin-4-yl)-N-(piperidin-3-yl)benzamide] |  | IC50 (Homo sapiens, MV4-11, 72 h): 100 nM
COCCCc1ccnc(Nc2ccc(C(=O)N(c3nccc4cccc(C)c34)[C@@H]3CCCNC3)c(F)c2)n1 [Example 752, (R)-2-fluoro-4-((4-(3-methoxypropyl)pyrimidin-2-yl)amino)-N-(8-methylisoquinolin-1-yl)-N-(piperidin-3-yl)benzamide] | 190 | 
Cc1cccc2ccnc(N(C(=O)c3ccc(Nc4nccc(-c5ccc(N)nc5)n4)cc3F)[C@@H]3CCCNC3)c12 [Example 720, (R)-4-((4-(6-aminopyridin-3-yl)pyrimidin-2-yl)amino)-2-fluoro-N-(8-methylisoquinolin-1-yl)-N-(piperidin-3-yl)benzamide] | 55 | 
Cn1cc(-c2ccc(C(=O)N(c3nccc4cc(-c5ccc(S(C)(=O)=O)cc5)ccc34)[C@@H]3CCCNC3)c(F)c2)nn1 [Example 582, (R)-2-fluoro-4-(1-methyl-1H-1,2,3-triazol-4-yl)-N-(6-(4-(methylsulfonyl)phenyl)isoquinolin-1-yl)-N-(piperidin-3-yl)benzamide] | 220 | 
Cc1cccc2ccnc(N(C(=O)c3ccc(C#N)c(-c4ccc(-c5ccccc5)cc4)c3)[C@@H]3CCCNC3)c12 [Example 327, 4-cyano-N-(8-methyl-1-isoquinolyl)-3-(4-phenylphenyl)-N-[(3R)-3-piperidyl]benzamide] |  | IC50 (Homo sapiens, MV4-11, 72 h): 2700 nM

The next lines start with results.

IC50 [1] [nM] | SMILES | also measured
180 | Cc1cccc2ccnc(N(C(=O)c3ccc(Nc4nccc(N5CCC[C@H](O)C5)n4)cc3F)[C@@H]3CCCNC3)c12 [Example 624, 2-fluoro-4-((4-((S)-3-hydroxypiperidin-1-yl)pyrimidin-2-yl)amino)-N-(8-methylisoquinolin-1-yl)-N—((R)-piperidin-3-yl)benzamide] | 
85 | COCCn1cc(-c2ccc(C(=O)N(c3nccc4scc(C)c34)[C@@H]3CCCNC3)c(F)c2)nn1 [Example 640, (R)-2-fluoro-4-(1-(2-methoxyethyl)-1H-1,2,3-triazol-4-yl)-N-(3-methylthieno[3,2-c]pyridin-4-yl)-N-(piperidin-3-yl)benzamide] | 
32 | Cc1cccc2ccnc(N(C(=O)c3ccc(Nc4nccc(-c5cccnc5)n4)cc3F)[C@@H]3CCCNC3)c12 [Example 727, (R)-2-fluoro-N-(8-methylisoquinolin-1-yl)-N-(piperidin-3-yl)-4-((4-(pyridin-3-yl)pyrimidin-2-yl)amino)benzamide] | 
790 | CNC(=O)/C=C/c1cc2c(N(C(=O)c3ccc(-n4nnc5cccnc54)cc3F)[C@@H]3CCCNC3)nccc2s1 [Example 525, 2-fluoro-N-[2-[(E)-3-(methylamino)-3-oxo-prop-1-enyl]thieno[3,2-c]pyridin-4-yl]-N-[(3R)-3-piperidyl]-4-(triazolo[4,5-b]pyridin-3-yl)benzamide] | 
310 | Cn1cc(-c2ccc(C(=O)N(c3nccc4sc(-c5ccc6cc[nH]c6c5)cc34)[C@@H]3CCCNC3)c(F)c2)nn1 [Example 543, 2-fluoro-N-[2-(1H-indol-6-yl)thieno [3,2-c]pyridin-4-yl]-4-(1-methyltriazol-4-yl)-N-[(3R)-3-piperidyl] benzamide] | 
330 | Nc1noc2ccc(-c3cc4c(N(C(=O)c5ccc(-n6nnc7cccnc76)cc5F)[C@@H]5CCCNC5)nccc4s3)cc12 [Example 420, N-[2-(3-amino-1,2-benzoxazol-5-yl)thieno[3,2-c]pyridin-4-yl]-2-fluoro-N-[(3R)-3-piperidyl]-4-(triazolo[4,5-b]pyridin-3-yl)benzamide] | 
150 | [2H]C([2H])([2H])c1nnc(-c2ccc(C(=O)N(c3nccc4cccc(C)c34)[C@@H]3CCCNC3)c(F)c2)s1 [Example 899, 2-fluoro-N-(8-methyl-1-isoquinolyl)-N-[(3R)-3-piperidyl]-4-[5-(trideuteriomethyl)-1,3,4-thiadiazol-2-yl]benzamide] | 
69 | Cc1ccc(F)c2ccnc(N(C(=O)c3ccc(-c4cn(C)nn4)cc3F)[C@@H]3CCCNC3)c12 [Example 761, (R)-2-fluoro-N-(5-fluoro-8-methylisoquinolin-1-yl)-4-(1-methyl-1H-1,2,3-triazol-4-yl)-N-(piperidin-3-yl)benzamide] | 
46 | Cc1nnc(-c2ccc(C(=O)N(c3nccc4cc(-c5nccs5)cc(C)c34)[C@@H]3CCCNC3)c(F)c2)s1 (racemic) [Example 733, 2-fluoro-4-(5-methyl-1,3,4-thiadiazol-2-yl)-N-(8-methyl-6-thiazol-2-yl-1-isoquinolyl)-N-[rac-(3R)-3-piperidyl] benzamide] | 
2600 | Cc1cccc2ccnc(N(C(=O)c3ccc(-n4nnc5cccnc54)cc3C(F)(F)F)[C@@H]3CCCNC3)c12 [Example 312, (R)-4-(3H-[1,2,3]triazolo[4,5-b]pyridin-3-yl)-N-(8-methylisoquinolin-1-yl)-N-(piperidin-3-yl)-2-(trifluoromethyl)benzamide] | 
910 | Cn1cc(-c2ccc(C(=O)N(c3nccc4sc(-c5ccc6c(c5)C(=O)NC6)cc34)[C@@H]3CCCNC3)c(F)c2)nn1 [Example 533, 2-fluoro-4-(1-methyltriazol-4-yl)-N-[2-(3-oxoisoindolin-5-yl)thieno[3,2-c]pyridin-4-yl]-N-[(3R)-3-piperidyl]benzamide] | 
620 | Cn1cc(-c2ccc(C(=O)N(c3nccc4sc(Cc5ccccc5)cc34)[C@@H]3CCCNC3)c(F)c2)nn1 [Example 487, N-(2-benzylthieno[3,2-c]pyridin-4-yl)-2-fluoro-4-(1-methyltriazol-4-yl)-N-[(3R)-3-piperidyl]benzamide] | 
38 | COc1cc(C)c2c(N(C(=O)c3ccc(-c4cn(C)nn4)cc3F)[C@@H]3CCCNC3)nccc2c1 [Example 619, (R)-2-fluoro-N-(6-methoxy-8-methylisoquinolin-1-yl)-4-(1-methyl-1H-1,2,3-triazol-4-yl)-N-(piperidin-3-yl)benzamide] | 
340 | Cc1ncc(-c2cc3c(N(C(=O)c4ccc(-c5cn(C)nn5)cc4F)[C@@H]4CCCNC4)nccc3s2)s1 [Example 483, (R)-2-fluoro-4-(1-methyl-1H-1,2,3-triazol-4-yl)-N-(2-(2-methylthiazol-5-yl)thieno[3,2-c]pyridin-4-yl)-N-(piperidin-3-yl)benzamide] | 
1300 | O=C(c1ccc(Nc2ncccn2)cc1F)N(c1nccc2cc(Cl)ccc12)[C@@H]1CCCNC1 [Example 794, (R)—N-(6-chloroisoquinolin-1-yl)-2-fluoro-N-(piperidin-3-yl)-4-(pyrimidin-2-ylamino)benzamide] | 
130 | Cc1cc(F)cc2ccnc(N(C(=O)c3ccc(-c4nnn(C)c4C)cc3F)[C@@H]3CCCNC3)c12 [Example 829, (R)-4-(1,5-dimethyl-1H-1,2,3-triazol-4-yl)-2-fluoro-N-(6-fluoro-8-methylisoquinolin-1-yl)-N-(piperidin-3-yl)benzamide] | 
